24 compounds from ChEMBL document CHEMBL1201862, “PubChem BioAssay data set” (2004) can be followed below.

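Dose response: 5 concentrations. Exposure: 48 h. Format: 96-well plates. Endpoint: linear interpolation; highest concentration if not reached. Here, GI50 denotes the concentration required for 50% inhibition of growth.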 Activity calls are given as the source filed them. Cut-off read from the data, not from the text of the source: active = GI50 up to about 1.1 µM and inactive = higher.

Among the test systems are XF498; RXF 631; DMS-273; HOP-18; DMS-114; LXFL 529; KM-20L2; M19-MEL; SNB-78.
Common to all, as to test: NCI-60 cell line screen, 48 h

Take `CC1(C)CC(N(C(=O)/C=C/c2ccc([N+](=O)[O-])o2)C2CCCCC2)CC(C)(C)N1`: the GI50 is 11.4 µM (inactive) in the test with XF498; 10.6 µM (inactive) in the test with RXF 631; 5.52 µM (inactive) in the test on DMS-273; 22.8 µM (inactive) in the test with HOP-18; 2.55 µM (inactive) with DMS-114; 5.36 µM (inactive) in the test on LXFL 529. In addition, the GI50 in the test with KM-20L2 was 5.38 µM (inactive); with M19-MEL, 5.11 µM (inactive); in the test on SNB-78 it was 10.5 µM (inactive).
With `O=C(O)COc1ccc(C(=O)/C(SS/C(C(=O)c2ccc(OCC(=O)O)c(Cl)c2Cl)=C2\C=C(c3ccc(Cl)cc3)SS2)=C2/C=C(c3ccc(Cl)cc3)SS2)c(Cl)c1Cl`, the GI50 in the test on RXF 631 was 12.1 µM (inactive); in the test with DMS-273, 18.1 µM (inactive); in the test with HOP-18 it was 7.73 µM (inactive); in the test on LXFL 529 it was 4.61 µM (inactive); with KM-20L2 it was 25.1 µM (inactive); in the test on M19-MEL, 7.74 µM (inactive). Besides, in the test on SNB-78, the GI50 was 6.7 µM (inactive).
As for `CN(C)c1ccc(Cc2cc(C(C)(C)C)cc(C(C)(C)C)c2O)cc1`, the GI50 with XF498 was 19.9 µM (inactive); with RXF 631 it was 17.3 µM (inactive); with DMS-273, 17.4 µM (inactive); in the test on HOP-18, 26 µM (inactive); in the test on DMS-114, 14.6 µM (inactive); in the test with LXFL 529, 15.2 µM (inactive). The GI50 in the test with KM-20L2 was 18.5 µM (inactive); with M19-MEL it was 21.3 µM (inactive); in the test on SNB-78, 18.5 µM (inactive).
As for `c1ccc([B-]23Oc4ccccc4[NH+]2c2ccccc2O3)cc1` (stereo not given), the GI50 is 54.6 µM (inactive) in the test on DMS-273; > 100 µM (inactive) in the test on HOP-18; 24.9 µM (inactive) in the test on DMS-114; 63.8 µM (inactive) in the test with LXFL 529; 77.4 µM (inactive) with SNB-78.
Turning to `N=C1OC(c2cccc(Cl)c2)C(NNS(=O)(=O)c2ccccc2)=C1O` (stereo not given), the GI50 in the test with DMS-273 was 32.4 µM (inactive); in the test with HOP-18 it was > 100 µM (inactive); in the test with DMS-114, 17.9 µM (inactive); in the test on LXFL 529, 16.8 µM (inactive); in the test with KM-20L2, 39.4 µM (inactive); with M19-MEL it was 24 µM (inactive). In addition, in the test on SNB-78, the GI50 is 27.4 µM (inactive).
As to `Cc1ccc(NC(=O)C2C3C=CC(O3)C2C(=O)O)cc1` (stereo not given), the GI50 in the test with XF498 was 71.9 µM (inactive); with DMS-273, > 100 µM (inactive); in the test on HOP-18 it was > 100 µM (inactive); in the test with DMS-114 it was 66.8 µM (inactive); with LXFL 529, > 100 µM (inactive); with KM-20L2 it was > 100 µM (inactive). The GI50 in the test on M19-MEL and in the test with SNB-78 was > 100 µM (inactive) throughout.
In the case of `Nc1nc2ncn(CCO)c2c(=S)[nH]1`, the GI50 with DMS-273, in the test with HOP-18, with DMS-114, with LXFL 529, in the test with KM-20L2 and in the test on M19-MEL was > 100 µM (inactive) throughout. For the same compound, the GI50 with SNB-78 was > 100 µM (inactive).
As to `C=CCOCCCCC(C(C)=O)C(=O)OC` (stereo not given), the GI50 with XF498, in the test with HOP-18, in the test with LXFL 529, in the test with KM-20L2, with M19-MEL and with SNB-78 was > 100 µM (inactive) each time.
For the compound `CCCCSN1C(=O)c2ccccc2C1=S`, the GI50 was > 100 µM (inactive) with XF498; > 100 µM (inactive) with RXF 631; 45.3 µM (inactive) in the test on DMS-273; 45.5 µM (inactive) in the test on DMS-114; 56.2 µM (inactive) in the test on M19-MEL; 49.3 µM (inactive) in the test with SNB-78.
Turning to `CC1(C)C(c2ccccc2)C12CCC1(C2=O)C(c2ccccc2)C1(C)C` (stereo not given), the GI50 with XF498 is 18.7 µM (inactive); in the test on DMS-273 it was 22.1 µM (inactive); in the test with DMS-114, 17.9 µM (inactive); in the test with LXFL 529, 31.5 µM (inactive); in the test on KM-20L2, 20.3 µM (inactive); with M19-MEL it was 24.6 µM (inactive). Further, the GI50 in the test with SNB-78 was 24.6 µM (inactive).
For `CCNC1=Nc2ccc(Cl)cc2C(c2ccccc2)=NN1`, the GI50 in the test with XF498 was 25.8 µM (inactive); in the test with RXF 631, 19.9 µM (inactive); in the test on DMS-273 it was 10.9 µM (inactive); with HOP-18, 62.2 µM (inactive); with DMS-114, 15.4 µM (inactive); in the test with M19-MEL, 18.1 µM (inactive). For the same compound, the GI50 in the test on SNB-78 is 25.5 µM (inactive).
In the case of `O=[N+]([O-])c1ccccc1[S+]([O-])c1ccccc1` (stereo not given), the GI50 was > 100 µM (inactive) in the test on XF498; 47.2 µM (inactive) in the test on DMS-273; 22.1 µM (inactive) in the test with DMS-114; > 100 µM (inactive) with LXFL 529; 21.3 µM (inactive) in the test with M19-MEL; 56.9 µM (inactive) with SNB-78.
As to `C=C(C)[C@H](O)C(O)CC(C)[C@@H]1CCC23CC12CCC1[C@@]2(C)CCC(OC(C)=O)C(C)(C)C2CC(OC2OC(COC(C)=O)C(O)C(O)C2O)[C@]13C` (stereo not given in full), the GI50 in the test on RXF 631 is 6.12 µM (inactive); in the test on DMS-273, 5.66 µM (inactive); in the test on HOP-18 it was 8.85 µM (inactive); in the test on DMS-114, 4.91 µM (inactive); with LXFL 529, 5.32 µM (inactive); in the test with KM-20L2, 4.53 µM (inactive). Moreover, the GI50 with M19-MEL is 5.24 µM (inactive); in the test with SNB-78, 7.16 µM (inactive).
For `COc1cc(C2c3cc4c(cc3[C@@H](Nc3ccc(N)cc3)C3COC(=O)[C@H]23)OCO4)cc(OC)c1O` (stereo not given in full), the GI50 is 1.45 µM (inactive) in the test on XF498; 0.361 µM (active) in the test with DMS-273; 9.89 µM (inactive) in the test with HOP-18; 1.59 µM (inactive) with DMS-114; 8.59 µM (inactive) in the test on LXFL 529; 1.94 µM (inactive) with KM-20L2. The results for the GI50 with M19-MEL and with SNB-78 were 2.91 µM (inactive) and 9.16 µM (inactive), respectively.
On to `O=C1[C@@H](c2ccc(Cl)cc2)[C@H]2CC=C[C@H]2N1O`, for which the GI50 is > 100 µM (inactive) in the test with XF498; 39.7 µM (inactive) in the test with RXF 631; > 100 µM (inactive) in the test with DMS-273; 41.5 µM (inactive) in the test on DMS-114; > 100 µM (inactive) with LXFL 529; > 100 µM (inactive) with M19-MEL. Further, in the test with SNB-78, the GI50 was > 100 µM (inactive).
Take `Cc1cnoc1/N=C1\C=C(Nc2oncc2C)C(=O)c2ccccc21`: the GI50 in the test with XF498 was > 100 µM (inactive); in the test with RXF 631 it was > 100 µM (inactive); with DMS-273 it was > 100 µM (inactive); in the test with HOP-18, > 100 µM (inactive); in the test on DMS-114, 46.8 µM (inactive); with LXFL 529, 79.1 µM (inactive). In addition, the GI50 in the test on KM-20L2 and in the test on SNB-78 was > 100 µM (inactive) throughout.
Consider `COC(=O)c1cc2c(nc1C)-c1ccccc1OS2(=O)=O`, for which the GI50 in the test on XF498 was 56.6 µM (inactive); with RXF 631, > 100 µM (inactive); in the test with DMS-273, > 100 µM (inactive); in the test with DMS-114, > 100 µM (inactive); in the test on LXFL 529 it was > 100 µM (inactive); with KM-20L2, > 100 µM (inactive). In addition, the GI50 was > 100 µM (inactive) in the test on M19-MEL and 82.8 µM (inactive) with SNB-78.
`CC(C)(C)c1cc(-c2c3nc(c(-c4cc(C(C)(C)C)cc(C(C)(C)C)c4)c4ccc([nH]4)c(-c4cc(C(C)(C)C)cc(C(C)(C)C)c4)c4nc(c(-c5cc(C(C)(C)C)cc(C(C)(C)C)c5)c5ccc2[nH]5)C=C4)C=C3)cc(C(C)(C)C)c1`: the GI50 in the test on XF498, with RXF 631, in the test with DMS-273, in the test on HOP-18, with DMS-114 and in the test with LXFL 529 was > 100 µM (inactive) in each case. The GI50 in the test with KM-20L2 and in the test on SNB-78 was > 100 µM (inactive) each time.
Turning to `CCN(CC)CCCCC1CCN(CC(=O)N2CC(C)C(=O)Nc3ccccc32)CC1` (stereo not given), the GI50 in the test with DMS-273, in the test on HOP-18, with DMS-114, with LXFL 529, in the test on KM-20L2 and in the test with M19-MEL was > 100 µM (inactive) throughout.
For the compound `ON=C1CCC(c2ccccc2)CC1` (stereo not given), the GI50 in the test with XF498, in the test on DMS-273, in the test on HOP-18, in the test on DMS-114, with LXFL 529 and with KM-20L2 was > 100 µM (inactive) in each case. In addition, the GI50 with M19-MEL and with SNB-78 was > 100 µM (inactive) in each case.
Regarding `N=C(NC(=S)N1CCCCC1)N1CCCCC1`, the GI50 in the test with XF498, with DMS-273, with HOP-18, with DMS-114, in the test on LXFL 529 and with KM-20L2 was > 100 µM (inactive) in each case. Moreover, the GI50 in the test on M19-MEL and in the test on SNB-78 was > 100 µM (inactive) each time.
Turning to `Cc1cc(Cl)ccc1NC(=O)CC1SC(N)=NC1=O` (stereo not given), the GI50 in the test with RXF 631, with DMS-273, in the test with HOP-18, in the test on DMS-114, in the test with LXFL 529 and with KM-20L2 was > 100 µM (inactive) throughout. In addition, the GI50 with M19-MEL is > 100 µM (inactive).
For `O=C(Nc1ccc(Cl)cc1)NS(=O)(=O)c1ccc2c(c1)CCC2` [SULOFENUR], the GI50 in the test with XF498 was 34.1 µM (inactive); with DMS-273, 32.4 µM (inactive); in the test with HOP-18, 42.8 µM (inactive); in the test on DMS-114 it was 35.2 µM (inactive); with LXFL 529, 31.5 µM (inactive); with KM-20L2, 37.8 µM (inactive). The GI50 with M19-MEL is > 68.7 µM (inactive); in the test with SNB-78, > 47 µM (inactive).
`Cc1ccc(C2=C(c3ccccc3)C(O)(c3ccccc3)C(c3ccccc3)=C2c2ccc(C)cc2)cc1`: the GI50 with XF498 is 44.5 µM (inactive); in the test on RXF 631, > 100 µM (inactive); in the test with HOP-18 it was > 100 µM (inactive); with LXFL 529, > 100 µM (inactive); in the test with KM-20L2 it was > 100 µM (inactive); in the test on M19-MEL, > 100 µM (inactive). In the test on SNB-78, the GI50 is > 100 µM (inactive).
